According to PMC8901637, “Deprogramming metabolism in pancreatic cancer with a bi-functional GPR55 inhibitor and biased β2 adrenergic agonist” (Scientific Reports, 2022):
pIC50: −log10 of the molar value.

Experiments:
GPR55 [1] = molecular target: T1, GPR55 (Homo sapiens, UniProt Q9Y2T6); assay: inhibition of uptake of the fluorescent GPR55 agonist T1117 in hGPR55-HEK293 cells (live-cell imaging); type: cell-based
T1 construct: 3 × HA-tagged human GPR55 stably expressed in HEK293 cells

GPR55 [2] = molecular target: T1, GPR55; assay: inhibition of uptake of the fluorescent GPR55 agonist T1117 in hGPR55-HEK293 cells; positive control; type: cell-based

T1 sequence (Q9Y2T6 whole entry): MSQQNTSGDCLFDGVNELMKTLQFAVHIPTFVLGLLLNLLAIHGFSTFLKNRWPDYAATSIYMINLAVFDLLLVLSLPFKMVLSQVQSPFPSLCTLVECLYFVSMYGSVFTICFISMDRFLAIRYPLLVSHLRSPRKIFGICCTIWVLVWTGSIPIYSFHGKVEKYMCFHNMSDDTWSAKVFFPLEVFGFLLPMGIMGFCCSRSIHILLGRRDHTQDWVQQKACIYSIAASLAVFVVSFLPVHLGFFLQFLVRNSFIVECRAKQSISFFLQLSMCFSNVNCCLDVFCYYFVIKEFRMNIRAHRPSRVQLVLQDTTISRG

SMILES	pIC50 (GPR55 [1])	% reduction in T1117 incorporation (GPR55 [2])
COc1ccc(C[C@H](C)NC[C@H](O)c2cc(O)cc(O)c2)c2ccccc12 [(R,S′)-MNF, (R,S′)-4′-methoxy-1-naphthylfenoterol]	5.89	
COc1ccc(C[C@@H](C)NC[C@H](O)c2cc(O)cc(O)c2)c2ccccc12 [(R,R′)-MNF]		~ 70 % reduction in T1117 incorporation
